Reference: US12517131B2, “Methods for labeling eukaryotic cells from a multicellular organism as well as for treating and/or diagnosing a cancer using modified monosaccharide compounds” (DIAMIDEX, priority 2019, dated 2026)

What was measured:
Type in all cases: cell-based, human
[1] = test system: A431 (tumoral cell lines); assay: In vitro cytotoxicity of Ara-N3 probe (Annexin V/IP, MTS); details: tested 1, 10, 50 and 100 mM, 24 h and 48 h
Description: (§1) The cell lines (as detailed below in the table) were provided by Inserm/Aquiderm transfer cell. Cell culture of cell lines and cell cytoxicity tests were also carried out by Aquiderm transfer cell, in the laboratory of INSERM U1035.
(§2) The cells were cultivated in an oven at 37° C., 5% CO2 and 95% humidity, in different culture media: • either in RPMI 1640 medium supplemented with 10% of decomplemented FCS (Fetal calf serum) and antibiotics penicillin (100 IU/ml) and […] (100 μg/ml), for the pair Monocytes/THP1. • either in DMEM medium supplemented with 10% of decomplemented FCS and antibiotics penicillin (100 IU/ml) and […] (100 μg/ml) for the Hacat/A431 couple.
(§3) All the cells were seeded in culture plates, either in 96 wells at the density of 1*10^4 cells/well for the MTS proliferation test, either in 24 wells at the density of 5*10^4 cells/well for the Annexin V test/IP test. Then the cells were incubated at 37° C. and 5% CO2 for 24 hours. After 24 hours, the culture medium was changed in all the wells and the cells adhered to the bottom of the wells were rinsed twice in PBS (Eurobio) or centrifuged and washed twice in PBS for the cells in suspension, before being exposed to the Ara-N3 probe at different concentrations: 1, 10, 50 and 100 mM. The cells were incubated at 37° C. and 5% CO2 for 48 hours.
(§4) This test requires the use of an Annexin V-APC kit (Biolegend) for the detection of apoptosis/necrosis. This test uses the ability of Annexin V to bind to membrane phosphatidylserines (PS) and the intercalating properties of propidium iodide (PI) on DNA.
(§5) Briefly, after incubation of the cells with the Ara-N3 probe at different concentrations and at different times (24 h and 48 h), the cells were recovered, trypsinized (for adherent cells) and washed in PBS. After counting in trypan blue on the Malassez cell, the cells were incubated in a labeling buffer (100 μL) in the presence of Annexin V-APC (5 μL) and of IP (10 μL) for 15 minutes at room temperature and in the dark. They were then directly analyzed by cytometry after adding 100 μL of labeling buffer. […]

[2] = test system: HACAT (immortalized cell lines); assay: as above; details: tested 1, 10, 50 and 100 mM, 24 h and 48 h
Description: as §1, §2, §3, §4, §5

[3] = test system: THP1 (tumoral cell lines); assay: as above; details: tested 1, 10, 50 and 100 mM, 24 h and 48 h
Description: as §1, §2, §3, §4, §5

RS4 (vs Lymphocytes T) = assay: Labeling of cancer and non-cancer cells, fluorescence signal ratio; details: RS4 (35 h) vs Lymphocytes T (24 h); Ara-N3 10 mM; FBS 10%; one doubling time
Description: (§6) The fluorescence Assimilation of Ara-N3 probes was visualized by copper-free click chemistry using sulfo-DBCO-biotin (1 mM), followed by labeling with a mouse anti-biotin Alexa Fluor 488 antibody conjugate (0.62 mg/ml stock, Jackson ImmunoResearch, dilution 1/10). The click reaction was carry-out as following: At 24 h incubation times, the culture mediums were removed, and attached cells were washed twice with PBS. Cells were detached with Tryp-LE, washed twice with PBS, and centrifuged at 13000 g for 2 min. The cellular pellets were resuspended with 10 μL of sulfo-DBCO-biotin and incubated 30 min in the dark, and at 37 C°. Then, cells were washed twice with PBS, centrifuged, and cellular pellets were resuspended with 10 μL of a mouse anti-biotin antibody solution, before to be incubated at room temperature in dark. Thereafter, cells were washed twice with PBS and small cellular suspension spots (5 μL) were put in Polysine® adhesion slides (VWR international S.A.S), in the dark room, until dry (20 min). The spots were fixed with 4% paraformaldehyde during 20 min, in dark and room temperature. Slides were then washed twice with PBS, before recovering with square cover glasses (VWR international S.A.S) using glycerol Mounting Medium (Dako) and stored at 4° C. in dark room.
(§7) The fluorescence acquisition was recorded using Olympus Microscopy IX83 (Olympus Life Science) equipped with a 60×/1.3 […]/1.4 SRI (silicone refractive index) objective, and Hamamatsu oreca flash 4 LT camera with 109 nm/pixel calibrated pixel size. The excitation light was emitted by X-CITE 120LED using the AT180/30X excited filter and signal was monitored using AT535/40m emission filter. Green light exposition time was 600 ms and white light exposition time was determined by DIC methods at […]. The acquisition area size analyzed by the Celisens dimension V1.16 software was different depending on the cell number containing in the spot.
(§8) The images were processed using count and measure unit of the Cellsens dimension V1.16 software. The background noise was deleted as follows: ROI were first defined on the background of the image and the average pixel intensity was calculated. The value thus obtained was subtracted from all pixels of the image. The fluorescence intensity of each cell was determined from a threshold set at a value of 3030. All pixels that have intensity below 3030 were not counted.
(§9) The same experiments as in example 2 with other cancer and corresponding non cancer cells were performed. The culture media were adapted to the tested cells and supplemented by 10% fetal bovine serum (FBS). Ara-N3 probe (10 mM) was added to culture media with FBS concentration (10%). The incubation times corresponded to one doubling time or twice doubling time of the tested cells (see table below).
(§10) The fluorescence signal cancer/non cancer ratios were calculated based on fluorescence intensities obtained with Ara-N3 tested on cancer and corresponding non cancer cells.

[4] = test system: OCI-Ly3 (vs Isolated primary B cells); assay: as above; details: OCI-Ly3 (24 h) vs Isolated primary B cells; Ara-N3 10 mM; FBS 10%
Description: as §6, §7, §8, §9, §10

[5] = test system: SU-DHL-4 (vs Isolated primary B cells); assay: as above; details: SU-DHL-4 (40 h) vs Isolated primary B cells; Ara-N3 10 mM; FBS 10%
Description: as §6, §7, §8, §9, §10

KCL22 (vs Lymphocytes) = assay: as above; details: KCL22 (24 h) vs Lymphocytes (24 h); Ara-N3 10 mM; FBS 10%; one doubling time
Description: as §6, §7, §8, §9, §10

Kasumi-1 (vs B12-F8) = assay: as above; details: Kasumi-1 (48 h) vs B12-F8 (24 h); Ara-N3 10 mM; FBS 10%; one doubling time
Description: as §6, §7, §8, §9, §10

MDA MB175 (vs HME-1) = assay: as above; details: MDA MB175 (30 h) vs HME-1 (30 h); Ara-N3 10 mM; FBS 10%; one doubling time
Description: as §6, §7, §8, §9, §10

[6] = test system: DOHH-2 (vs Isolated primary B cells); assay: as above; details: DOHH-2 (40-48 h) vs Isolated primary B cells; Ara-N3 10 mM; FBS 10%
Description: as §6, §7, §8, §9, §10

For [N-]=[N+]=NC[C@H]1OC(O)[C@@H](O)[C@@H]1O (stereo partly drawn) [Ara-N3, 5-azido-5-deoxy-D-arabinofuranose], the “Non-toxic concentration of Ara-N3” value [1] was greater than 10 mM, the “Non-toxic concentration of Ara-N3” value [2] was greater than 10 mM and the “Non-toxic concentration of Ara-N3” value [3] was greater than 10 mM. The “Cancer/Non Cancer Ratio (fluorescence signal)” value (from here on “Cancer/Non Cancer Ratio”) (RS4 (vs Lymphocytes T)) was 1.6, the “Cancer/Non Cancer Ratio” value [4] was 6.2 and the “Cancer/Non Cancer Ratio” value [5] was 2.5. For the same compound, the “Cancer/Non Cancer Ratio” value (KCL22 (vs Lymphocytes)) was 4.9, the “Cancer/Non Cancer Ratio” value (Kasumi-1 (vs B12-F8)) was 1.5 and the “Cancer/Non Cancer Ratio” value (MDA MB175 (vs HME-1)) was 2. The “Cancer/Non Cancer Ratio” value [6] was 7.4.
